The subject of the assay is MCF-7 (Human breast cancer). The experiment in a line: MTT test on MCF-7 cells. Particulars: MCF7, till 48 h. It is filed as cell-based. The procedure: The in vitro anticancer activities of the synthesized compounds were conducted using different cancerous and non-cancerous cell lines viz B16-F0 (Mouse melanoma), mouse Ehrlich Ascites Carcinoma (EAC), MCF-7 (Human breast cancer), MCF-10A (Human breast epithelial cells), and NIH/3T3 (Mouse fibroblast cells). All cell lines were procured from the National Centre for Cell Science, Pune, India. The procured cells were cultured in a six-well culture plate with Dulbecco’s Modified Eagle’s Medium (DMEM) supplemented with 10% fetal bovine serum in a humid CO2 incubator with 5% carbon dioxide at 37 °C.
The anti-cancer effect and cytotoxicity of both 3-MBTSc and 4-NBTSc compounds were evaluated against different cancerous (MCF-7, EAC, B16-F0 cells) and noncancerous cells (MCF-10A, NIH-3T3 cells) using MTT test. In brief, the stock solutions of both the tested compounds were prepared by dissolving 1 mg of each compound in 1 mL of DMSO separately. Then, four different concentrations (5, 10, 12, and 20 µg/mL) of both compounds were used during the test along with the negative control. Also, 10 μg/mL of doxorubicin (Dox) was used as the positive control during the experiment. Both untreated and treated cells were incubated for next 24 and 48 h. Then, all the steps during the whole experiment were carried out by our earlier reported procedure. Later, the absorbance values were measured by an ELISA reader (Biorad, Hercules, CA, USA) at 570 nm wavelength using secondary wavelength as a reference at 620 nm and the percentages of cell viability was calculated using the following formula [59, 60, 61]. Cell viability (%)= Mean absorbance of treated cells/Mean absorbance of untreated cells × 100
Based on the cell viability data, the IC50 values of both compounds were calculated on different cancer cells by plotting their corresponding dose-responsive graphs.
The obtained data were statistically analyzed. The descriptive analysis was done and the IC50 values were calculated by fitting the sigmoidal dose responsive graph using GraphPad Prism (GraphPad Software, Inc., La Jolla, CA, USA). […]

SMILES strings stand for the structures. Values after ≈ are worked out from the molar mass of the structure shown.

As to `COc1cccc2c1C(=O)c1c(O)c3c(c(O)c1C2=O)C[C@@](O)(C(=O)CO)C[C@@H]3O[C@H]1C[C@H](N)[C@H](O)[C@H](C)O1` [DOX, doxorubicin, reference compound], the IC50 worked out at 3.162 ± 0.018 µg/mL (≈ 5.82 µM).

By IC50 is commonly meant the concentration at which inhibition is half-maximal. A high value points to weaker potency.

For the origin of these results see publication PMC8533299, “Synthesis, In Silico Study, and Anti-Cancer Activity of Thiosemicarbazone Derivatives” (Biomedicines, 2021).
